This is an account of results in patent US9701630B2, “Difluorolactam compositions for EP4-mediated osteo related diseases and conditions” (Cayman Chemical Company, Inc., priority 2012, dated 2017).

One experiment relates to calvarial bone defect. Kind of experiment: Rat calvarial defect model (bone formation). The experiment is classed as in vivo. Conditions: female Sprague Dawley rats, in calcium phosphate cement/demineralized bone matrix, 3 μg/ml to 3 mg/ml, eight weeks; data in FIG. 1.
A further experiment has as its target T1, rat EP4 receptor (Rattus norvegicus, UniProt P43114).
T1 construct: host or cells: cells seeded on the STEP plate
Kind of experiment: STEP plate cAMP level assay for EP4 agonist. It counts as cell-based. The conditions noted are these: cAMP readout, read-out: STEP cell functional assay EC50s cAMP/EP4. The text has this: Functional Cellular Assays (STEP Plate Format)
Procedure of cAMP Assay for EP2/EP4 Agonist
3. […] In addition each concentration had triplicates.
6. Aspirate the supernatant.
A general note: cAMP levels reflect the balance of adenylyl cyclase and phosphodiesterase activity.

T1 sequence (P43114 whole entry): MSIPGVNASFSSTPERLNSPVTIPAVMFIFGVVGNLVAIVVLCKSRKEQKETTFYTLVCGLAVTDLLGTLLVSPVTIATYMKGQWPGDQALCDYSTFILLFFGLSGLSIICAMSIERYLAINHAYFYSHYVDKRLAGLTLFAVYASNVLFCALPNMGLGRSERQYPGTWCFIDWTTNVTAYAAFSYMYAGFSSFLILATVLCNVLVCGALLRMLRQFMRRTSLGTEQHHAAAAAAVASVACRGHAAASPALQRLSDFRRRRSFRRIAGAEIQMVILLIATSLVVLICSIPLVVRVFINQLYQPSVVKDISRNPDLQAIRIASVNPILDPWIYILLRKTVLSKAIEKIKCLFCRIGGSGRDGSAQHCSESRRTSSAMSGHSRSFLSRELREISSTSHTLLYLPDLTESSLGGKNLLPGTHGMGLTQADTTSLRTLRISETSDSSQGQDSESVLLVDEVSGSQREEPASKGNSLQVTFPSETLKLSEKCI

Turning to `CCC#CC[C@H](C)[C@H](O)/C=C/[C@H]1CC(F)(F)C(=O)N1CCCCCCC(=O)O` [Example 2C, 7-((R)-3,3-difluoro-5-((3S,4S,E)-3-hydroxy-4-methylnon-1-en-6-yn-1-yl)-2-oxopyrrolidin-1-yl)heptanoic acid], the “Healing of a calvarial bone defect (degree of repair)” value with calvarial bone defect is reported as “Accelerated Healing”.
For the molecule `COC(=O)c1ccc(CCCN2C(=O)C(F)(F)C[C@@H]2/C=C/[C@@H](O)[C@H](C)CCCc2ccccc2)s1` [Example 28E, methyl 5-(3-((R)-3,3-difluoro-5-((3S,4R,E)-3-hydroxy-4-methyl-7-phenylhept-1-en-1-yl)-2-oxopyrrolidin-1-yl)propyl)thiophene-2-carboxylate], the EC50 on rat EP4 receptor was 50.8 nM.
